From US10342430B2, “Device and method for in vivo noninvasive magnetic manipulation of circulating objects in bioflows” (BioVentures, LLC, priority 2007, dated 2019)

Tests used:
[1] = tested on: B16F10 cultured mouse melanoma cells; assay: Trypan blue exclusion assay after ICG labeling of melanoma cells; type: cell-based; conditions: staining 30 min at 37° C., 5% CO2; data not shown
Source text: B16F10 cultured mouse melanoma cells (ATCC, Rockville, Md.) were used in this experiment. The cells were maintained using standard procedures (Ara et al. 1990, Weight et al. 2006, Zharov et al. 2006), including serial passage in phenol-free RPMI 1640 medium (Invitrogen, Carlsbad, Calif.) supplemented with 10% fetal bovine serum (FBS, Invitrogen). For comparison to the detection of unlabelled melanoma cells, the endogenous cell absorption was increased by staining with ICG (Akorn Inc., USA), a strongly absorbent dye in the NIR range, for 30 min at 37° C. and in the presence of 5% CO2.

[2] = In vivo PAFC monitoring of Lymphazurin in blood circulation (ear microvessel) after tail vein injection; set-up: species or system mouse; conditions: 200 μl of 1% solution into tail vein; 50-μm ear microvessel; 650 nm
Source text: In this experiment, a prototype PAFC system was used to detect Lymphazurin circulating in the blood vessels of a mouse ear.
The prototype PAFC system was built on the platform of an Olympus BX51 microscope (Olympus America, Inc.) and a tunable optical parametric oscillator (OPO) pumped by a Nd:YAG laser (Lotis Ltd., Minsk, Belarus). […] Laser energy was directed to the blood vessels using a conventional lens, or an optical fiber. PA waves emitted by the cells were detected by ultrasound transducers (unfocused Panametrics model XMS-310, 10 MHz; focused cylindrical Panametrics model V312-SM, 10 MHz, focused lengths of 6 mm, 12 mm, and 55 mm; and customized resonance transducers), and the ultrasound transducer outputs were conditioned by an amplifier (Panametrics model 5662, bandwidth 50 kHz-5 MHz; Panametrics model 5678, bandwidth 50 kHz-40 MHz; customized amplifiers with adjustable high and low frequency boundaries in the range to 50-200 KHz and 1-20 MHz, respectively; resonance bandwidth of 0.3-1.0 MHz). The amplifier output signals were recorded with a Boxcar data acquisition system (Stanford Research Systems, Inc.) and a Tektronix TDS 3032B oscilloscope, and were analyzed using standard and customized software. […] The signals from the oscilloscope screen were recorded with a digital camera (Sony, Inc.) and video camera (JVC, Inc.). […]

Structure (SMILES)	toxicity after labeling [1]	clearance of Lymphazurin from the blood [2]
CC1(C)C(/C=C/C=C/C=C/C=C2\N(CCCCS(=O)(=O)O)c3ccc4ccccc4c3C2(C)C)=[N+](CCCCS(=O)(=O)[O-])c2ccc3ccccc3c21 [ICG, Indocyanine Green]	No toxicity was observed	–
CCN(CC)c1ccc(C(=C2C=CC(=[N+](CC)CC)C=C2)c2cc(S(=O)(=O)[O-])ccc2S(=O)(=O)[O-])cc1.[Na+] [Lymphazurin, Isosulfan Blue]	–	50 min
